Source: ChEMBL document CHEMBL4765494, “A role of flavonoids in cytochrome c-cardiolipin interactions” (Bioorg Med Chem, 2021)

Key:
[1] = target: Cytochrome c (Homo sapiens) (UniProt P99999); assay: Inhibition of cytochrome c (unknown origin) assessed as reduction in cyt c-CL complex formation at 10 uM incubated for 15 mins in presence of cardiolipin by Trp-59 fluorescence assay relative to control
[2] = target: Cytochrome c (Homo sapiens) (UniProt P99999); assay: Inhibition of cytochrome c (unknown origin) assessed as reduction in cyt c-CL peroxidase activity at 10 uM up to 20 mins in presence of cardiolipin by Amplex red staining based fluorescence assay relative to control; settings: time min <=20
[3] = target: Cytochrome c (Homo sapiens) (UniProt P99999); assay: Inhibition of cytochrome c (unknown origin) assessed as reduction reduction of cyt c from its ferric state to ferrous state at 10 uM incubated for 20 mins in presence of cardiolipin by UV-vis Spectrophotometric assay relative to control
[4] = target: Cytochrome c (Homo sapiens) (UniProt P99999); assay: Inhibition of cytochrome c (unknown origin) assessed as reduction reduction of cyt c from its ferric state to ferrous state incubated for 20 mins in presence of cardiolipin by UV-vis Spectrophotometric assay
[5] = Octanol-water distribution coefficient, log D of the compound at pH 7.4 after 1 hr by UV-VIS spectroscopic analysis; type: physicochemical
[6] = target: Cytochrome c (Homo sapiens) (UniProt P99999)
Description: Inhibition of cytochrome c (unknown origin) assessed as half-time reaction

[7] = target: Cytochrome c (Homo sapiens) (UniProt P99999); assay: Inhibition of cytochrome c (unknown origin) assessed as pseudo first order rate constant

Chain of Cytochrome c (Homo sapiens) (P99999 whole entry): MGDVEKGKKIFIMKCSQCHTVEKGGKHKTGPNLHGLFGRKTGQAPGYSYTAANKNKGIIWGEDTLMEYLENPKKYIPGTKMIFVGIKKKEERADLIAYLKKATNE

## COc1ccc([C@@H]2CC(=O)c3c(O)cc(O)cc3O2)cc1O [HESPERETIN]
[1]
  inhibition: 71%
[2]
  inhibition: 57%
[3]
  inhibition: 7.8%
[4]
  K: 0.1 M⁻¹ s⁻¹
[5]
  logD at 1 h: 2.22

## O=C1C[C@@H](c2ccccc2)Oc2ccccc21
[1]
  inhibition: 67%
[2]
  inhibition: 47%
[3]
  inhibition: 12%
[5]
  logD at 1 h: 2.95

## O=C1C[C@@H](c2ccc(O)cc2)Oc2cc(O)cc(O)c21 [NARINGENIN]
[1]
  inhibition: 60%
[2]
  inhibition: 46%
[3]
  inhibition: 7.3%
[4]
  K: 0.002 M⁻¹ s⁻¹
[5]
  logD at 1 h: 2.35

## O=c1c(-c2ccc(O)cc2)coc2cc(O)cc(O)c12 [GENISTEIN]
[1]
  inhibition: 50%
[2]
  inhibition: 51%
[3]
  inhibition: 0%
[5]
  logD at 1 h: 2.68

## COc1ccc(-c2coc3cc(O)cc(O)c3c2=O)cc1 [BIOCHANIN]
[1]
  inhibition: 37%
[2]
  inhibition: 32%
[3]
  inhibition: 23%
[5]
  logD at 1 h: 2.82

## O=c1c(O)c(-c2ccc(O)cc2)oc2cc(O)cc(O)c12 [KAEMPFEROL]
[1]
  inhibition: 83%
[2]
  inhibition: 70%
[3]
  inhibition: 83%
[4]
  K: 92 M⁻¹ s⁻¹
[5]
  logD at 1 h: 3.39
[6]
  T1/2: 1.2 min

## O=c1cc(-c2ccc(O)c(O)c2)oc2cc(O)cc(O)c12 [LUTEOLIN]
[1]
  inhibition: 84%
[2]
  inhibition: 71%
[3]
  inhibition: 32%
[7]
  K: 0.033 min⁻¹
[5]
  logD at 1 h: 2.7
[6]
  T1/2: 11 min

## O=c1c(O)c(-c2ccc(O)c(O)c2)oc2cc(O)ccc12 [FISETIN]
[1]
  inhibition: 85%
[2]
  inhibition: 81%
[3]
  inhibition: 73%
[4]
  K: 220 M⁻¹ s⁻¹
[5]
  logD at 1 h: 2.29

## O=C(O[C@@H]1Cc2c(O)cc(O)cc2O[C@@H]1c1cc(O)c(O)c(O)c1)c1cc(O)c(O)c(O)c1 [EPIGALOCATECHIN GALLATE]
[1]
  inhibition: 63%
[2]
  inhibition: 50%
[3]
  inhibition: 62%
[5]
  logD at 1 h: 0.04
[6]
  T1/2: 1.3 min

## Oc1cc(O)c2c(c1)O[C@H](c1ccc(O)c(O)c1)[C@@H](O)C2 [CIANIDANOL]
[2]
  inhibition: 90%
[3]
  inhibition: 61%
[4]
  K: 2 M⁻¹ s⁻¹
[7]
  K: 0.13 min⁻¹
[5]
  logD at 1 h: 0.01

## O=c1c(O)c(-c2cc(O)c(O)c(O)c2)oc2cc(O)cc(O)c12 [MYRICETIN]
[1]
  inhibition: 91%
[2]
  inhibition: 81%
[3]
  inhibition: 90%
[4]
  K: 1030 M⁻¹ s⁻¹
[5]
  logD at 1 h: 0.91
[6]
  T1/2: 0.08 min

## O=c1cc(-c2ccccc2)oc2ccccc12
[1]
  inhibition: 87%
[2]
  inhibition: 50%
[3]
  inhibition: 0%

## C[C@@H]1O[C@@H](OC[C@H]2O[C@@H](Oc3c(-c4ccc(O)c(O)c4)oc4cc(O)cc(O)c4c3=O)[C@H](O)[C@@H](O)[C@@H]2O)[C@H](O)[C@H](O)[C@H]1O [RUTIN]
[1]
  inhibition: 66%
[2]
  inhibition: 28%
[3]
  inhibition: 19%
[5]
  logD at 1 h: -0.67

## C[C@@H]1O[C@@H](O[C@H]2[C@H](Oc3cc(O)c4c(c3)O[C@H](c3ccc(O)cc3)CC4=O)O[C@H](CO)[C@@H](O)[C@@H]2O)[C@H](O)[C@H](O)[C@H]1O [NARINGIN]
[1]
  inhibition: 81%
[2]
  inhibition: 54%
[3]
  inhibition: 27%
[5]
  logD at 1 h: -0.87

## O=c1c(-c2ccc(O)cc2)coc2cc(O)ccc12
[2]
  inhibition: 43%
[3]
  inhibition: 5.8%

## O=c1cc(-c2ccccc2)oc2cc(O)c(O)c(O)c12 [BAICALEIN]
[1]
  inhibition: 91%
[2]
  inhibition: 71%
[3]
  inhibition: 79%
[5]
  logD at 1 h: 2.51

## O=C1c2c(O)cc(O)cc2O[C@H](c2ccc(O)c(O)c2)[C@H]1O [(+)-TAXIFOLIN]
[1]
  inhibition: 58%
[2]
  inhibition: 67%
[3]
  inhibition: 36%
[4]
  K: 1 M⁻¹ s⁻¹
[7]
  K: 0.067 min⁻¹
[5]
  logD at 1 h: 0.67
